Type in all cases: cell-based
In experiment [1] the test system is Helicobacter pylori ATCC 700392. The experiment in a line: Minimum inhibitory concentration (MIC) determination, broth microdilution. The note with it: H. pylori ATCC 700392; 72 h, BHI broth with 7% FBS, no turbidity. The protocol:
(§1) Helicobacter pylori ATCC 43504 and ATCC 700392 were purchased from the American Type Culture Collection (ATCC, Manassas, Va., USA). Cultures were grown in brain heart infusion (BHI) agar/broth (HiMedia, Mumbai India) supplemented with 7% (v/v) sheep blood or fetal bovine serum and incubated at 37° C. under microaerobic conditions (Na, 85%; 02, 5%; CO2, 10%) using an anaerobic chamber (Imset, Mumbai, India). Bacillus coagulans MTCC 5856 was grown in MRS media by adding inoculum (5% v/v) to the MRS broth and incubated at 37° C. for 24 h. After 24 h, the culture was centrifuged (5,000×g) to remove the cells and the supernatant was collected, concentrated 10-fold by lyophilization and filter sterilized through a 0.22 micron filter (Millipore, India). The cell-free supernatant was tested against H. pylori and 10-fold concentrated supernatant was also tested against H. pylori ATCC 43504 and ATCC 700392. The MICs of curcumin, β-glucogallin and mucic acid gallates extract and Piperine extract were determined as per the guidelines of Clinical and Laboratory Standards Institute (formerly the National Committee for Clinical Laboratory Standards). […] After incubation, plates were visually read for the absence or presence of turbidity. The minimum concentration of the compound concentration showing no turbidity was recorded as MIC.

Experiment [2] relates to Helicobacter pylori ATCC 43504. Described as above. The following applies: H. pylori ATCC 43504; 72 h, BHI broth with 7% FBS, no turbidity. The protocol:
as §1

The subject of experiment [3] is Helicobacter pylori ATCC 700392. Description: Well diffusion method, zones of inhibition. The following applies: ATCC700392, 72 h, H. pylori ATCC 700392, 1000 μg/well, 3 days, 37° C., microaerobic. As for the experimental part: (§2) Helicobacter pylori ATCC 43504 and ATCC 700392 were purchased from the American Type Culture Collection (ATCC, Manassas, Va., USA). Cultures were grown in brain heart infusion (BHI) agar/broth (HiMedia, Mumbai India) supplemented with 7% (v/v) sheep blood or fetal bovine serum and incubated at 37° C. under microaerobic conditions (Na, 85%; 02, 5%; CO2, 10%) using an anaerobic chamber (Imset, Mumbai, India). Bacillus coagulans MTCC 5856 was grown in MRS media by adding inoculum (5% v/v) to the MRS broth and incubated at 37° C. for 24 h. After 24 h, the culture was centrifuged (5,000×g) to remove the cells and the supernatant was collected, concentrated 10-fold by lyophilization and filter sterilized through a 0.22 micron filter (Millipore, India). The cell-free supernatant was tested against H. pylori and 10-fold concentrated supernatant was also tested against H. pylori ATCC 43504 and ATCC 700392. Similar to above, BHI agar plates supplemented with 7% (v/v) fetal bovine serum were prepared containing a strain of Helicobacter pylori ATCC 43504 or ATCC 700392. Further, well was made in the BHI agar plates containing Helicobacter pylori ATCC 43504 or ATCC 700392. […] After incubation, the antibacterial activities were evaluated by measuring a diameter of the inhibition zone. […]

Experiment [4] has as its system Helicobacter pylori ATCC 43504. Description: Well diffusion method, zones of inhibition. The following applies: ATCC43504, 72 h, H. pylori ATCC 43504, 1000 μg/well, 3 days, 37° C., microaerobic. The protocol: as §2
Background: Agar diffusion results depend on both activity and mobility in agar.

Structures are written as SMILES.

A word on the zone of inhibition: it is the size of the clear area around the sample on an inoculated plate. A lower zone of inhibition goes with little suppression of growth.

For `COc1cc(/C=C/C(=O)CC(=O)/C=C/c2ccc(O)c(OC)c2)ccc1O` [Curcumin], the MIC range in experiment [1] and in experiment [2] was 125 to 250 µg/mL in each case. The zone of inhibition at 1000 µg/disc was 14 ± 1.2 mm in experiment [3] and 13 ± 1.2 mm in experiment [4].

(Values after US10792295B2, “Compositions for management of Helicobacter pylori infections” (SAMI LABS LIMITED, priority 2017, dated 2020).)
